Test results taken from ChEMBL document CHEMBL3862012, “Methylene versus carbonyl bridge in the structure of new tubulin polymerization inhibitors with tricyclic A-rings” (Bioorg Med Chem, 2016).

Experiments:
[1] = Inhibition of sheep brain tubulin polymerization by DAPI staining-based fluorimetric method; parameters: species or system Ovis aries
[2] = Cytotoxicity against human HL-60(TB) cells assessed as growth inhibition at 10 uM after 48 hrs by SRB assay relative to control; assay type: functional; conditions: HL-60, 48 h, read-out: GI
[3] = Cytotoxicity against human MOLT4 cells assessed as growth inhibition at 10 uM after 48 hrs by SRB assay relative to control; assay type: functional; conditions: MOLT-4, 48 h, read-out: GI
[4] = Cytotoxicity against human HOP92 cells assessed as growth inhibition at 10 uM after 48 hrs by SRB assay relative to control; assay type: functional; conditions: HOP-92, 48 h, read-out: GI
[5] = Cytotoxicity against human NCI-H522 cells assessed as growth inhibition at 10 uM after 48 hrs by SRB assay relative to control; assay type: functional; conditions: NCI-H522, 48 h, read-out: GI
[6] = Cytotoxicity against human HCT116 cells assessed as growth inhibition at 10 uM after 48 hrs by SRB assay relative to control; assay type: functional; conditions: HCT-116, 48 h, read-out: GI
[7] = Cytotoxicity against human SW620 cells assessed as growth inhibition at 10 uM after 48 hrs by SRB assay relative to control; assay type: functional; conditions: SW-620, 48 h, read-out: GI
[8] = Cytotoxicity against human SF268 cells assessed as growth inhibition at 10 uM after 48 hrs by SRB assay relative to control; assay type: functional; conditions: SF-268, 48 h, read-out: GI
[9] = Cytotoxicity against human SF539 cells assessed as growth inhibition at 10 uM after 48 hrs by SRB assay relative to control; assay type: functional; conditions: SF-539, 48 h, read-out: GI
[10] = Cytotoxicity against human M14 cells assessed as growth inhibition at 10 uM after 48 hrs by SRB assay relative to control; assay type: functional; conditions: M14, 48 h, read-out: GI
[11] = Cytotoxicity against human SK-MEL-2 cells assessed as growth inhibition at 10 uM after 48 hrs by SRB assay relative to control; assay type: functional; conditions: SK-MEL-2, 48 h, read-out: GI
[12] = Cytotoxicity against human IGROV1 cells assessed as growth inhibition at 10 uM after 48 hrs by SRB assay relative to control; assay type: functional; conditions: IGROV-1, 48 h, read-out: GI
[13] = Cytotoxicity against human OVCAR4 cells assessed as growth inhibition at 10 uM after 48 hrs by SRB assay relative to control; assay type: functional; conditions: OVCAR-4, 48 h, read-out: GI
[14] = Cytotoxicity against human OVCAR5 cells assessed as growth inhibition at 10 uM after 48 hrs by SRB assay relative to control; assay type: functional; conditions: OVCAR-5, 48 h, read-out: GI
[15] = Cytotoxicity against human ACHN cells assessed as growth inhibition at 10 uM after 48 hrs by SRB assay relative to control; assay type: functional; conditions: read-out: GI
[16] = Cytotoxicity against human MCF7 cells assessed as growth inhibition at 10 uM after 48 hrs by SRB assay relative to control; assay type: functional; conditions: MCF7, 48 h, read-out: GI
[17] = Cytotoxicity against human Hs 578T cells assessed as growth inhibition at 10 uM after 48 hrs by SRB assay relative to control; assay type: functional; conditions: read-out: GI
[18] = Cytotoxicity against human T47D cells assessed as growth inhibition at 10 uM after 48 hrs by SRB assay relative to control; assay type: functional; conditions: read-out: GI
[19] = Cytotoxicity against human HL-60(TB) cells assessed as growth inhibition after 48 hrs by SRB assay; assay type: functional; conditions: HL-60, 48 h
[20] = Cytotoxicity against human K562 cells assessed as growth inhibition after 48 hrs by SRB assay; assay type: functional; conditions: K562, 48 h
[21] = Cytotoxicity against human SR cells assessed as growth inhibition after 48 hrs by SRB assay; assay type: functional
[22] = Cytotoxicity against human EKVX cells assessed as growth inhibition after 48 hrs by SRB assay; assay type: functional
[23] = Cytotoxicity against human HOP92 cells assessed as growth inhibition after 48 hrs by SRB assay; assay type: functional; conditions: HOP-92, 48 h
[24] = Cytotoxicity against human NCI-H522 cells assessed as growth inhibition after 48 hrs by SRB assay; assay type: functional; conditions: NCI-H522, 48 h
[25] = Cytotoxicity against human COLO205 cells assessed as growth inhibition after 48 hrs by SRB assay; assay type: functional; conditions: COLO 205, 48 h
[26] = Cytotoxicity against human HCC2998 cells assessed as growth inhibition after 48 hrs by SRB assay; assay type: functional; conditions: HCC 2998, 48 h
[27] = Cytotoxicity against human HCT116 cells assessed as growth inhibition after 48 hrs by SRB assay; assay type: functional; conditions: HCT-116, 48 h
[28] = Cytotoxicity against human HT-29 cells assessed as growth inhibition after 48 hrs by SRB assay; assay type: functional; conditions: HT-29, 48 h
[29] = Cytotoxicity against human SF295 cells assessed as growth inhibition after 48 hrs by SRB assay; assay type: functional; conditions: SF-295, 48 h
[30] = Cytotoxicity against human U251 cells assessed as growth inhibition after 48 hrs by SRB assay; assay type: functional; conditions: U-251, 48 h
[31] = Cytotoxicity against human SK-MEL-2 cells assessed as growth inhibition after 48 hrs by SRB assay; assay type: functional; conditions: SK-MEL-2, 48 h
[32] = Cytotoxicity against human SK-MEL-28 cells assessed as growth inhibition after 48 hrs by SRB assay; assay type: functional; conditions: SK-MEL-28, 48 h
[33] = Cytotoxicity against human UACC62 cells assessed as growth inhibition after 48 hrs by SRB assay; assay type: functional; conditions: UACC-62, 48 h
[34] = Cytotoxicity against human OVCAR8 cells assessed as growth inhibition after 48 hrs by SRB assay; assay type: functional; conditions: OVCAR-8, 48 h
[35] = Cytotoxicity against human IGROV1 cells assessed as growth inhibition after 48 hrs by SRB assay; assay type: functional; conditions: IGROV-1, 48 h
[36] = Cytotoxicity against human RXF393 cells assessed as growth inhibition after 48 hrs by SRB assay; assay type: functional; conditions: RXF 393, 48 h
[37] = Cytotoxicity against human SN12C cells assessed as growth inhibition after 48 hrs by SRB assay; assay type: functional
[38] = Cytotoxicity against human ACHN cells assessed as growth inhibition after 48 hrs by SRB assay; assay type: functional
[39] = Cytotoxicity against human MCF7 cells assessed as growth inhibition after 48 hrs by SRB assay; assay type: functional; conditions: MCF7, 48 h
[40] = Cytotoxicity against human HCC2998 cells assessed as growth inhibition at 10 uM after 48 hrs by SRB assay relative to control; assay type: functional; conditions: HCC 2998, 48 h, read-out: GI
[41] = Cytotoxicity against human SK-MEL-28 cells assessed as growth inhibition at 10 uM after 48 hrs by SRB assay relative to control; assay type: functional; conditions: SK-MEL-28, 48 h, read-out: GI
[42] = Cytotoxicity against human SK-MEL-5 cells assessed as growth inhibition at 10 uM after 48 hrs by SRB assay relative to control; assay type: functional; conditions: SK-MEL-5, 48 h, read-out: GI
[43] = Cytotoxicity against human UACC62 cells assessed as growth inhibition at 10 uM after 48 hrs by SRB assay relative to control; assay type: functional; conditions: UACC-62, 48 h, read-out: GI

Structure (SMILES) | inhibition of growth at 10 µM [2] [%] | inhibition of growth at 10 µM [3] [%] | inhibition of growth at 10 µM [4] [%] | inhibition of growth at 10 µM [5] [%] | inhibition of growth at 10 µM [6] [%] | inhibition of growth at 10 µM [7] [%] | inhibition of growth at 10 µM [8] [%] | inhibition of growth at 10 µM [9] [%] | inhibition of growth at 10 µM [10] [%] | inhibition of growth at 10 µM [11] [%] | inhibition of growth at 10 µM [12] [%] | inhibition of growth at 10 µM [13] [%] | inhibition of growth at 10 µM [14] [%] | inhibition of growth at 10 µM [15] [%] | inhibition of growth at 10 µM [16] [%] | inhibition of growth at 10 µM [17] [%] | inhibition of growth at 10 µM [18] [%] | GI50 [20] [nM] | GI50 [21] [nM] | GI50 [26] [nM] | further results
COc1ccc(CN2c3ccccc3Sc3ccccc32)cc1O | 79 | 82 | 50 | 100 | 87 | 69 | 54 | 100 | 86 | 91 | 70 | 54 | 14 | 58 | 74 | 67 | 73 | 365 | 407 | 422 | IC50 [1]: 9200 nM; GI50 [19]: 257 nM; GI50 [22]: 378 nM; GI50 [23]: 502 nM; GI50 [24]: 241 nM; GI50 [25]: 789 nM; GI50 [27]: 386 nM; GI50 [28]: 724 nM; GI50 [29]: 225 nM; GI50 [30]: 427 nM; GI50 [31]: 333 nM; GI50 [32]: 14400 nM; GI50 [33]: 682 nM; GI50 [34]: 508 nM; GI50 [35]: 1930 nM; GI50 [36]: 338 nM; GI50 [37]: 1290 nM; GI50 [38]: 1560 nM; GI50 [39]: 355 nM
COc1ccc(CN2c3ccccc3Oc3ccccc32)cc1O | 84 | 75 | 67 | 100 | 86 | 73 | 43 | 84 | 82 | 100 | 55 | 45 | 9 | 64 | 73 | 69 | 69 |  |  |  | 
COc1ccc(CN2c3ccccc3Sc3ccccc32)c(F)c1 | 100 | 77 | 67 | 100 | 84 | 90 | 48 | 100 | 89 | 70 | 50 | 38 | 50 | 57 | 77 | 78 | 88 | 38 | 60 | 5060 | inhibition of growth at 10 µM [40]: 38%; inhibition of growth at 10 µM [41]: 47%; inhibition of growth at 10 µM [42]: 74%; inhibition of growth at 10 µM [43]: 67%; GI50 [27]: 40 nM; GI50 [28]: 35 nM; GI50 [32]: 5050 nM; GI50 [35]: 46 nM; GI50 [37]: 10600 nM; GI50 [39]: 33 nM
